Assay results from patent publication US6914045B2, “Glycopeptide antibiotics” (Wyeth Holdings Corporation, priority 2001, dated 2005).
Numbered stars: 1 amine (or outer) side, 2 acyl side, 3 side chain; on linkers, the order of the positions; unused ones are H or OH. Square brackets hold non-standard residues; d marks the D form. Peptide text beside a SMILES is read from it. * marks the point of attachment. ξ: configuration not given here. X1 = N=C1NCC(C(O)C(N[*:1])C(=O)[*:2])N1C1OC(CO)C(O)C(O)C1O; ξEnduracididine(βξ-OH,4'ξ) = N=C1NCC(C(O)C(N)C(=O)O)N1; X2 = OCC1OC(OC2C(CO)OC(*)C(O)C2O)C(O)C(O)C1O

Tests used:
Experiment in all cases: in vitro antibacterial evaluation, MIC by broth dilution
Type in all cases: cell-based
Enterococcus sp. = details: broth dilution, 18 hours at 35° C.
Method in brief: (§1)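 Test organisms, which included recent clinical isolates resistant to methicillin, penicillin and/or vancomycin, were inoculated at 5×10^5 CFU/mL into Muller-Hinton II […] containing antibiotic at 64-0.06 μg/mL. Minimum inhibitory concentrations were then read as the lowest level inhibiting growth.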

Escherichia coli = details: 18 hours at 35° C.
Method in brief: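 Step 1: dilute antibiotic across 64-0.06 μg/mL in Muller-Hinton II […]. Step 2: inoculate at 5×10^5 CFU/mL.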

Staphylococcus sp. = details: broth dilution, 18 hours at 35° C.
Method in brief: as §1

Streptococcus sp. = details: broth dilution, 18 hours at 35° C.
Method in brief: as §1

N=C1NCC(C(O)C2NC(=O)C(Cc3ccc(OC4OC(CO)C(OC5OC(CO)C(O)C(O)C5O)C(O)C4O)cc3)NC(=O)C(Cc3ccccc3)NC(=O)CNC(=O)C(CO)NC(=O)C(C(O)C3CNC(=N)N3C3OC(CO)C(O)C(O)C3O)NC2=O)N1 (stereo not drawn) [Example 282, Cyclo[glycylphenylalanyl-O-(4-O-hexopyranosylhexopyranosyl)tyrosyl-3-(2-iminomidazolidin-4-yl)seryl-3-(3-hexopyranosyl-2-iminoimidazolidin-4-yl)serylseryl]] (cyclo(GFY(X2)[ξEnduracididine(βξ-OH,4'ξ)][X1]S); configuration not given here)
128 µg/mL: MIC Enterococcus avium (GC 4558) (Enterococcus sp.; Enterococcus avium (GC 4558)) | MIC Enterococcus faecium (GC 4557) (Enterococcus sp.; Enterococcus faecium (GC 4557)) | MIC Enterococcus faecium (GC 4557) (Enterococcus sp.; strain GC 4557) | MIC Enterococcus avium (GC 4558) (Enterococcus sp.; strain GC 4558) | MIC Escherichia coli (GC 4560) (Escherichia coli; Escherichia coli (GC 4560)) | MIC Streptococcus pneumoniae (ATCC 6301) (Streptococcus sp.; strain ATCC 6301) | MIC Streptococcus pneumoniae (GC 1894) (Streptococcus sp.; strain GC 1894)
>128 µg/mL: MIC Enterococcus faecalis (ATCC 29212) (Enterococcus sp.; Enterococcus faecalis (ATCC 29212)) | MIC Enterococcus faecalis (GC 4553) (Enterococcus sp.; Enterococcus faecalis (GC 4553)) | MIC Enterococcus faecalis (GC 4554) (Enterococcus sp.; Enterococcus faecalis (GC 4554)) | MIC Enterococcus faecalis (GC 6189) (Enterococcus sp.; Enterococcus faecalis (GC 6189)) | MIC Enterococcus faecium (GC 2243) (Enterococcus sp.; Enterococcus faecium (GC 2243)) | MIC Enterococcus faecium (GC 4556) (Enterococcus sp.; Enterococcus faecium (GC 4556)) | MIC Enterococcus faecalis (ATCC 29212) (Enterococcus sp.; strain ATCC 29212) | MIC Enterococcus faecalis (GC 2242) (Enterococcus sp.; strain GC 2242) | MIC Enterococcus faecium (GC 2243) (Enterococcus sp.; strain GC 2243) | MIC Enterococcus faecalis (GC 2691) (Enterococcus sp.; strain GC 2691) | MIC Enterococcus faecalis (GC 3059) (Enterococcus sp.; strain GC 3059) | MIC Enterococcus faecalis (GC 4552) (Enterococcus sp.; strain GC 4552) | MIC Enterococcus faecalis (GC 4553) (Enterococcus sp.; strain GC 4553) | MIC Enterococcus faecalis (GC 4554) (Enterococcus sp.; strain GC 4554) | MIC Enterococcus faecium (GC 4556) (Enterococcus sp.; strain GC 4556) | MIC Enterococcus faecalis (GC 6189) (Enterococcus sp.; strain GC 6189) | MIC Escherichia coli (ATCC 25922) (Escherichia coli; Escherichia coli (ATCC 25922)) | MIC Escherichia coli (GC 4559) (Escherichia coli; Escherichia coli (GC 4559)) | MIC Coagulase Negative Staphylococcus (GC 4547) (Staphylococcus sp.) | MIC Coagulase Negative Staphylococcus (GC 4548) (Staphylococcus sp.) | MIC Coagulase Negative Staphylococcus (GC 4549) (Staphylococcus sp.) | MIC Coagulase Negative Staphylococcus (GC 4551) (Staphylococcus sp.) | MIC Staphylococcus aureus (ATCC 29213) (Staphylococcus sp.) | MIC Staphylococcus aureus (GC 1131) (Staphylococcus sp.) | MIC Staphylococcus aureus (GC 3051) (Staphylococcus sp.) | MIC Staphylococcus aureus (GC 3053) (Staphylococcus sp.) | MIC Staphylococcus aureus (GC 4541) (Staphylococcus sp.) | MIC Staphylococcus aureus (GC 4542) (Staphylococcus sp.) | MIC Staphylococcus aureus (GC 4544) (Staphylococcus sp.) | MIC Staphylococcus aureus (GC 4545) (Staphylococcus sp.) | MIC Staphylococcus aureus-SMITH (GC 4543) (Staphylococcus sp.) | MIC Staphylococcus haemolyticus (GC 4546) (Staphylococcus sp.) | MIC Staphylococcus aureus (ATCC 29213) (Staphylococcus sp.; strain ATCC 29213) | MIC Staphylococcus aureus (GC 1131) (Staphylococcus sp.; strain GC 1131) | MIC Staphylococcus aureus (GC 3051) (Staphylococcus sp.; strain GC 3051) | MIC Staphylococcus aureus (GC 3053) (Staphylococcus sp.; strain GC 3053) | MIC Staphylococcus aureus (GC 4541) (Staphylococcus sp.; strain GC 4541) | MIC Staphylococcus aureus (GC 4542) (Staphylococcus sp.; strain GC 4542) | MIC Staphylococcus aureus (GC 4544) (Staphylococcus sp.; strain GC 4544) | MIC Staphylococcus aureus (GC 4545) (Staphylococcus sp.; strain GC 4545) | MIC Staphylococcus haemolyticus (GC 4546) (Staphylococcus sp.; strain GC 4546) | MIC Coagulase Negative Staphylococcus (GC 4547) (Staphylococcus sp.; strain GC 4547) | MIC Coagulase Negative Staphylococcus (GC 4548) (Staphylococcus sp.; strain GC 4548) | MIC Coagulase Negative Staphylococcus (GC 4549) (Staphylococcus sp.; strain GC 4549) | MIC Coagulase Negative Staphylococcus (GC 4551) (Staphylococcus sp.; strain GC 4551) | MIC Staphylococcus aureus-SMITH (GC 4543) (Staphylococcus sp.; strain SMITH GC 4543) | MIC Streptococcus pyogenes (GC 4563) (Streptococcus sp.; strain GC 4563) | MIC Streptococcus agalactiae (GC 4564) (Streptococcus sp.; strain GC 4564) | MIC Streptococcus pneumoniae (GC 4565) (Streptococcus sp.; strain GC 4565)
